tested on: Septoria tritici—SEPTTR; test: Leaf Blotch of Wheat, in vivo whole plant, 24 Hour Protectant; details: Zymoseptoria tritici, 24 h, wheat plants sprayed at 100 ppm, inoculated after 24 hours; control of fungal infection vs untreated plants; read-out: SEPTTR in vivo 1 Day Protectant

SMILES	pest or weed control at 100 ppm
COc1ccc(CNC(=O)c2nc(Br)ccc2O)cc1 [Compound 482]	25 to 74%
COc1ccnc(C(=O)NC(COC(=O)C(C)Cc2ccccc2)C(=O)OC(C)C)c1OC(C)=O (centres unmarked) [Compound 588]	< 25%
CC(C)C(=O)O[C@H]1[C@H](C)OC(=O)[C@@H](NC(=O)c2nccnc2O)COC(=O)[C@@H]1Cc1ccccc1 [Compound 534]	25 to 74%
CC(NC(=O)c1ccncc1O)c1ccc(Oc2ccccc2)cc1 (centres unmarked) [Compound 512]	< 25%

tested on: Stagonospora nodorum (Leptosphaeria nodorum—LEPTNO); test: In vitro fungal growth inhibition, Stagonospora nodorum (LEPTNO); format: cell-based; details: Leptosphaeria; 25 ppm in the growth medium; read-out: LEPTNO in vitro Growth Inhibition

SMILES	inhibition at 25 ppm
COc1ccc(CNC(=O)c2nc(Br)ccc2O)cc1 [Compound 482]	< 80%
COc1ccnc(C(=O)NC(COC(=O)C(C)Cc2ccccc2)C(=O)OC(C)C)c1OC(C)=O (centres unmarked) [Compound 588]	< 80%
CC(C)C(=O)O[C@H]1[C@H](C)OC(=O)[C@@H](NC(=O)c2nccnc2O)COC(=O)[C@@H]1Cc1ccccc1 [Compound 534]	> 80%
CC(NC(=O)c1ccncc1O)c1ccc(Oc2ccccc2)cc1 (centres unmarked) [Compound 512]	< 80%

tested on: Leptosphaeria nodorum—LEPTNO; test: Glume Blotch of Wheat, in vivo whole plant, 24 Hour Protectant; details: Leptosphaeria; wheat plants sprayed at 100 ppm, inoculated after 24 hours; control of fungal infection vs untreated plants; read-out: LEPTNO in vivo 1 Day Protectant

SMILES	pest or weed control at 100 ppm
COc1ccc(CNC(=O)c2nc(Br)ccc2O)cc1 [Compound 482]	25 to 74%
COc1ccnc(C(=O)NC(COC(=O)C(C)Cc2ccccc2)C(=O)OC(C)C)c1OC(C)=O (centres unmarked) [Compound 588]	25 to 74%
CC(NC(=O)c1ccncc1O)c1ccc(Oc2ccccc2)cc1 (centres unmarked) [Compound 512]	< 25%

same assay, conditions: wheat plants sprayed at 100 ppm, inoculated after 24 hours; control of fungal infection vs untreated plants

SMILES	LEPTNO in vivo 1 Day Protectant
CC(C)C(=O)O[C@H]1[C@H](C)OC(=O)[C@@H](NC(=O)c2nccnc2O)COC(=O)[C@@H]1Cc1ccccc1 [Compound 534]	+ +

tested on: Erysiphe graminis—ERYSGT; test: Powdery Mildew of Wheat, in vivo whole plant, 24 Hour Protectant; details: Erysiphe; wheat plants sprayed at 100 ppm, inoculated after 24 hours; control of fungal infection vs untreated plants; read-out: ERYSGT in vivo 1 Day Protectant

SMILES	pest or weed control at 100 ppm
COc1ccc(CNC(=O)c2nc(Br)ccc2O)cc1 [Compound 482]	< 25%
COc1ccnc(C(=O)NC(COC(=O)C(C)Cc2ccccc2)C(=O)OC(C)C)c1OC(C)=O (centres unmarked) [Compound 588]	< 25%
CC(C)C(=O)O[C@H]1[C@H](C)OC(=O)[C@@H](NC(=O)c2nccnc2O)COC(=O)[C@@H]1Cc1ccccc1 [Compound 534]	< 25%
CC(NC(=O)c1ccncc1O)c1ccc(Oc2ccccc2)cc1 (centres unmarked) [Compound 512]	< 25%

tested on: Rhizoctonia solani (RHIZSO); test: microbe, parasite or virus in culture; format: cell-based; details: Rhizoctonia solani, read-out: RHIZSO in vitro Growth Inhibition

SMILES	inhibition at 25 ppm
COc1ccc(CNC(=O)c2nc(Br)ccc2O)cc1 [Compound 482]	< 80%
COc1ccnc(C(=O)NC(COC(=O)C(C)Cc2ccccc2)C(=O)OC(C)C)c1OC(C)=O (centres unmarked) [Compound 588]	< 80%
CC(C)C(=O)O[C@H]1[C@H](C)OC(=O)[C@@H](NC(=O)c2nccnc2O)COC(=O)[C@@H]1Cc1ccccc1 [Compound 534]	< 80%
CC(NC(=O)c1ccncc1O)c1ccc(Oc2ccccc2)cc1 (centres unmarked) [Compound 512]	< 80%

tested on: Phytophthora infestans—PHYTIN; test: whole plant or invertebrate; format: in vivo; details: Phytophthora, in Solanum lycopersicum, 24 h, read-out: PHYTIN in vivo 1 Day Protectant

SMILES	pest or weed control at 100 ppm
COc1ccc(CNC(=O)c2nc(Br)ccc2O)cc1 [Compound 482]	< 25%
COc1ccnc(C(=O)NC(COC(=O)C(C)Cc2ccccc2)C(=O)OC(C)C)c1OC(C)=O (centres unmarked) [Compound 588]	< 25%
CC(C)C(=O)O[C@H]1[C@H](C)OC(=O)[C@@H](NC(=O)c2nccnc2O)COC(=O)[C@@H]1Cc1ccccc1 [Compound 534]	< 25%
CC(NC(=O)c1ccncc1O)c1ccc(Oc2ccccc2)cc1 (centres unmarked) [Compound 512]	25 to 74%

tested on: Phytophthora infestans (PHYTIN); test: microbe, parasite or virus in culture; format: cell-based; details: Phytophthora infestans, read-out: PHYTIN in vitro Growth Inhibition

SMILES	inhibition at 25 ppm
COc1ccc(CNC(=O)c2nc(Br)ccc2O)cc1 [Compound 482]	< 80%
COc1ccnc(C(=O)NC(COC(=O)C(C)Cc2ccccc2)C(=O)OC(C)C)c1OC(C)=O (centres unmarked) [Compound 588]	< 80%
CC(C)C(=O)O[C@H]1[C@H](C)OC(=O)[C@@H](NC(=O)c2nccnc2O)COC(=O)[C@@H]1Cc1ccccc1 [Compound 534]	> 80%
CC(NC(=O)c1ccncc1O)c1ccc(Oc2ccccc2)cc1 (centres unmarked) [Compound 512]	< 80%

tested on: Mycosphaerella graminicola (Septoria tritici—SEPTTR); test: In vitro fungal growth inhibition, Mycosphaerella graminicola (SEPTTR); format: cell-based; details: Zymoseptoria tritici; 25 ppm in the growth medium; read-out: SEPTTR in vitro Growth Inhibition

SMILES	inhibition at 25 ppm
COc1ccc(CNC(=O)c2nc(Br)ccc2O)cc1 [Compound 482]	< 80%
COc1ccnc(C(=O)NC(COC(=O)C(C)Cc2ccccc2)C(=O)OC(C)C)c1OC(C)=O (centres unmarked) [Compound 588]	< 80%
CC(C)C(=O)O[C@H]1[C@H](C)OC(=O)[C@@H](NC(=O)c2nccnc2O)COC(=O)[C@@H]1Cc1ccccc1 [Compound 534]	> 80%
CC(NC(=O)c1ccncc1O)c1ccc(Oc2ccccc2)cc1 (centres unmarked) [Compound 512]	< 80%

tested on: Puccinia recondita—PUCCRT; test: Brown Rust of Wheat, in vivo whole plant, 24 Hour Protectant; details: Puccinia; wheat plants sprayed at 100 ppm, inoculated after 24 hours; control of fungal infection vs untreated plants; read-out: PUCCRT in vivo 1 Day Protectant

SMILES	pest or weed control at 100 ppm
COc1ccc(CNC(=O)c2nc(Br)ccc2O)cc1 [Compound 482]	< 25%
CC(C)C(=O)O[C@H]1[C@H](C)OC(=O)[C@@H](NC(=O)c2nccnc2O)COC(=O)[C@@H]1Cc1ccccc1 [Compound 534]	25 to 74%
CC(NC(=O)c1ccncc1O)c1ccc(Oc2ccccc2)cc1 (centres unmarked) [Compound 512]	< 25%

same assay, conditions: wheat plants sprayed at 100 ppm, inoculated after 24 hours; control of fungal infection vs untreated plants

SMILES	PUCCRT in vivo 1 Day Protectant
COc1ccnc(C(=O)NC(COC(=O)C(C)Cc2ccccc2)C(=O)OC(C)C)c1OC(C)=O (centres unmarked) [Compound 588]	+ +

tested on: Ustilago maydis (USTIMA); test: microbe, parasite or virus in culture; format: cell-based; details: Mycosarcoma maydis, read-out: USTIMA in vitro Growth Inhibition

SMILES	inhibition at 25 ppm
COc1ccc(CNC(=O)c2nc(Br)ccc2O)cc1 [Compound 482]	< 80%
COc1ccnc(C(=O)NC(COC(=O)C(C)Cc2ccccc2)C(=O)OC(C)C)c1OC(C)=O (centres unmarked) [Compound 588]	< 80%
CC(C)C(=O)O[C@H]1[C@H](C)OC(=O)[C@@H](NC(=O)c2nccnc2O)COC(=O)[C@@H]1Cc1ccccc1 [Compound 534]	< 80%
CC(NC(=O)c1ccncc1O)c1ccc(Oc2ccccc2)cc1 (centres unmarked) [Compound 512]	< 80%

tested on: Magnaporthe grisea (Pyricularia oryzae—PYRIOR); test: microbe, parasite or virus in culture; format: cell-based; details: Pyricularia oryzae, read-out: PYRIOR in vitro Growth Inhibition

SMILES	inhibition at 25 ppm
COc1ccc(CNC(=O)c2nc(Br)ccc2O)cc1 [Compound 482]	< 80%
COc1ccnc(C(=O)NC(COC(=O)C(C)Cc2ccccc2)C(=O)OC(C)C)c1OC(C)=O (centres unmarked) [Compound 588]	< 80%
CC(C)C(=O)O[C@H]1[C@H](C)OC(=O)[C@@H](NC(=O)c2nccnc2O)COC(=O)[C@@H]1Cc1ccccc1 [Compound 534]	> 80%
CC(NC(=O)c1ccncc1O)c1ccc(Oc2ccccc2)cc1 (centres unmarked) [Compound 512]	< 80%

Source: US6706740B2, “Fungicidal heterocyclic aromatic amides and their compositions, methods of use and preparation” (Dow AgroSciences LLC, priority 1999, dated 2004)
